From ChEMBL document CHEMBL1201862, “PubChem BioAssay data set” (2004)
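Growth conditions: 96-well plates. Treatment: test compound, 48 hours, 5 concentrations. Analysis: linear interpolation between bracketing concentrations; unreached endpoints set to highest concentration. GI50: concentration for 50% inhibition of growth.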 Calls of active or inactive are those of the source. No stated cut-off is given here; in the data, active = GI50 up to about 1.1 µM and inactive = higher. Non-standard residues stand in square brackets, D forms with d. Residues, ends and D or L forms follow the SMILES beside them. ξ: configuration not given here. Pen = CC(C)(S)[C@H](N)C(=O)O; ξL = CC(C)CC(N)C(=O)O

Assays:
Assay in all cases: NCI anticancer screen, dose series, 48 h
HCC 2998 = system: HCC 2998
HCT-116 = system: HCT-116
HCT-15 = system: HCT-15
IGROV-1 = system: IGROV-1
KM12 = system: KM12
MOLT-4 = system: MOLT-4
NCI-H460 = system: NCI-H460
NCI/ADR-RES = system: NCI/ADR-RES
OVCAR-3 = system: OVCAR-3
OVCAR-4 = system: OVCAR-4
OVCAR-5 = system: OVCAR-5
RPMI-8226 = system: RPMI-8226
RXF 393 = system: RXF 393
SF-295 = system: SF-295
SNB-75 = system: SNB-75
SW-620 = system: SW-620
M14 = system: M14
TK-10 = system: TK-10

SMILES	GI50 (HCC 2998)	GI50 (HCT-116)	GI50 (HCT-15) [µM]	GI50 (IGROV-1)	GI50 (KM12)	GI50 (MOLT-4)	GI50 (NCI-H460)	GI50 (NCI/ADR-RES)	GI50 (OVCAR-3)	GI50 (OVCAR-4)	GI50 (OVCAR-5)	GI50 (RPMI-8226)	GI50 (RXF 393)	GI50 (SF-295)	GI50 (SNB-75)	GI50 (SW-620)	GI50 (M14)	GI50 (TK-10)
CN(C)CCNC(=O)c1cc(Cl)cc2cc3ccccc3nc12	1.39 µM (inactive)	0.445 µM (active)	0.755	1.14 µM (inactive)	1.17 µM (inactive)	0.396 µM (active)	0.311 µM (active)	0.766 µM (active)	4.71 µM (inactive)	2.2 µM (inactive)	1.15 µM (inactive)	0.721 µM (active)	1.06 µM (active)	0.492 µM (active)	2.27 µM (inactive)	0.519 µM (active)	–	–
CCOC(=O)/C=C/c1c[nH]c(C(=O)OCC)c1	> 100 µM (inactive)	> 100 µM (inactive)	> 100	> 100 µM (inactive)	> 100 µM (inactive)	> 100 µM (inactive)	> 100 µM (inactive)	> 100 µM (inactive)	> 100 µM (inactive)	> 100 µM (inactive)	> 100 µM (inactive)	> 100 µM (inactive)	> 100 µM (inactive)	> 100 µM (inactive)	> 66.1 µM (inactive)	> 100 µM (inactive)	–	–
O=C(OCc1ccccc1)OOC(=O)OCc1ccccc1	> 100 µM (inactive)	> 100 µM (inactive)	> 100	> 100 µM (inactive)	> 100 µM (inactive)	> 100 µM (inactive)	> 100 µM (inactive)	–	> 100 µM (inactive)	> 100 µM (inactive)	> 100 µM (inactive)	> 100 µM (inactive)	> 100 µM (inactive)	> 100 µM (inactive)	99.1 µM (inactive)	> 100 µM (inactive)	> 100 µM (inactive)	–
CC[C@H]1CN2CCc3cc(OC)c(OC)cc3[C@@H]2C[C@@H]1C[C@H]1NCCc2cc(O)c(OC)cc21	0.0261 µM (active)	0.025 µM (active)	0.0491	0.0385 µM (active)	0.0296 µM (active)	0.0502 µM (active)	0.0282 µM (active)	0.543 µM (active)	0.0377 µM (active)	0.025 µM (active)	0.25 µM (active)	0.146 µM (active)	0.0354 µM (active)	0.0326 µM (active)	–	0.025 µM (active)	–	–
COC(=O)C(Cc1ccc(N(C)C)cc1)(NC(=O)c1ccccc1)P(=O)(OC)OC (configuration not stated)	> 100 µM (inactive)	> 100 µM (inactive)	> 100	> 100 µM (inactive)	> 100 µM (inactive)	> 100 µM (inactive)	> 100 µM (inactive)	–	–	> 100 µM (inactive)	> 100 µM (inactive)	> 100 µM (inactive)	> 100 µM (inactive)	> 100 µM (inactive)	> 100 µM (inactive)	> 100 µM (inactive)	> 100 µM (inactive)	> 100 µM (inactive)
CCOC(=O)CNC(=O)NC12CC3CC(CC(C3)C1)C2	142 µM (inactive)	156 µM (inactive)	229	240 µM (inactive)	150 µM (inactive)	180 µM (inactive)	136 µM (inactive)	305 µM (inactive)	153 µM (inactive)	294 µM (inactive)	432 µM (inactive)	274 µM (inactive)	80.9 µM (inactive)	322 µM (inactive)	110 µM (inactive)	247 µM (inactive)	–	–
c1ccc2c(c1)SCCc1cn[nH]c1-2	> 100 µM (inactive)	> 100 µM (inactive)	> 100	> 100 µM (inactive)	> 100 µM (inactive)	> 100 µM (inactive)	> 100 µM (inactive)	> 100 µM (inactive)	> 100 µM (inactive)	> 100 µM (inactive)	> 100 µM (inactive)	–	> 100 µM (inactive)	> 100 µM (inactive)	> 92.5 µM (inactive)	> 100 µM (inactive)	–	–
O=C(CC/C=C(/CS(=O)(=O)c1ccccc1)S(=O)(=O)c1ccccc1)c1ccccc1	> 100 µM (inactive)	> 100 µM (inactive)	> 100	> 100 µM (inactive)	> 100 µM (inactive)	> 100 µM (inactive)	> 100 µM (inactive)	–	85.5 µM (inactive)	> 100 µM (inactive)	> 100 µM (inactive)	> 100 µM (inactive)	70.8 µM (inactive)	> 100 µM (inactive)	25.6 µM (inactive)	> 100 µM (inactive)	> 100 µM (inactive)	> 100 µM (inactive)
CC(=O)OCC1OC(Nc2ncc(-c3ccc(C)cc3)s2)C(OC(C)=O)C(OC(C)=O)C1OC(C)=O (configuration not stated)	23.3 µM (inactive)	26.6 µM (inactive)	37.5	66.5 µM (inactive)	36.1 µM (inactive)	24.6 µM (inactive)	31.5 µM (inactive)	26.3 µM (inactive)	31.6 µM (inactive)	27 µM (inactive)	38.1 µM (inactive)	24.7 µM (inactive)	47.3 µM (inactive)	43.2 µM (inactive)	39 µM (inactive)	74.5 µM (inactive)	–	–
C[Si](C)(C)/C(I)=C/CO	–	14.3 µM (inactive)	24.8	25.1 µM (inactive)	23 µM (inactive)	17 µM (inactive)	19.7 µM (inactive)	–	24.7 µM (inactive)	38.3 µM (inactive)	30.5 µM (inactive)	17.4 µM (inactive)	–	24.9 µM (inactive)	53.6 µM (inactive)	23.3 µM (inactive)	35.2 µM (inactive)	33.3 µM (inactive)
O=C1C2C3C=C4c5ccccc5N(c5ccccc5)C4(C2C(=O)N1Cc1ccccc1)C1C(=O)N(Cc2ccccc2)C(=O)C31 (configuration not stated)	> 100 µM (inactive)	> 100 µM (inactive)	> 100	–	> 100 µM (inactive)	> 100 µM (inactive)	> 100 µM (inactive)	–	–	–	> 100 µM (inactive)	–	–	64 µM (inactive)	16.1 µM (inactive)	> 100 µM (inactive)	> 10 µM (inactive)	> 100 µM (inactive)
C[n+]1[se]c2ccccc2c1Cl	> 47.8 µM (inactive)	16.9 µM (inactive)	24.7	31 µM (inactive)	> 40.2 µM (inactive)	13.5 µM (inactive)	35.3 µM (inactive)	–	27 µM (inactive)	31 µM (inactive)	> 52.1 µM (inactive)	33.1 µM (inactive)	19.5 µM (inactive)	21.7 µM (inactive)	17.6 µM (inactive)	20 µM (inactive)	13.7 µM (inactive)	> 43.4 µM (inactive)
C=CC1(c2ccccc2Cl)N/C(=C/OCC)CO1 (configuration not stated)	> 100 µM (inactive)	90.2 µM (inactive)	> 100	> 100 µM (inactive)	> 100 µM (inactive)	> 100 µM (inactive)	> 100 µM (inactive)	–	> 100 µM (inactive)	> 100 µM (inactive)	> 100 µM (inactive)	24.7 µM (inactive)	10.3 µM (inactive)	> 100 µM (inactive)	36.6 µM (inactive)	13.2 µM (inactive)	> 100 µM (inactive)	> 100 µM (inactive)
Cc1cc(O)c2c(c1O)C(=O)C13C(=C(O)C4C(O)C1C1C(O)C3C(O)=C3C(=O)c5c(O)cc(C)c(O)c5C(=O)C341)C2=O (configuration not stated)	0.032 µM (active)	0.0342 µM (active)	0.0367	0.137 µM (active)	0.0726 µM (active)	0.0541 µM (active)	0.0348 µM (active)	0.15 µM (active)	3.56 µM (inactive)	0.385 µM (active)	0.778 µM (active)	0.0121 µM (active)	0.0491 µM (active)	0.03 µM (active)	0.0499 µM (active)	0.0507 µM (active)	–	–
COC(=O)C(/C(=N/NC(N)=S)C(=O)Nc1ccccc1[N+](=O)[O-])c1cnc2ccccc2n1 (configuration not stated)	> 100 µM (inactive)	> 100 µM (inactive)	> 100	> 100 µM (inactive)	> 100 µM (inactive)	83 µM (inactive)	> 100 µM (inactive)	–	–	> 100 µM (inactive)	> 100 µM (inactive)	> 100 µM (inactive)	> 100 µM (inactive)	> 100 µM (inactive)	> 100 µM (inactive)	> 100 µM (inactive)	> 100 µM (inactive)	> 100 µM (inactive)
C[S+](C)CC1OC(n2cnc3c(N)ncnc32)C(O)C1O (configuration not stated)	> 225 µM (inactive)	> 225 µM (inactive)	> 225	> 225 µM (inactive)	> 225 µM (inactive)	> 225 µM (inactive)	> 225 µM (inactive)	> 225 µM (inactive)	> 225 µM (inactive)	> 225 µM (inactive)	> 225 µM (inactive)	> 225 µM (inactive)	> 225 µM (inactive)	> 225 µM (inactive)	> 225 µM (inactive)	> 225 µM (inactive)	–	–
CSCC[C@H](NC(=O)C(CC(C)C)NC(=O)[C@H](Cc1c[nH]cn1)NC(=O)CNC(=O)[C@@H](NC(=O)[C@@H](C)NC(=O)[C@H](Cc1c[nH]c2ccccc12)NC(=O)[C@H](CCC(N)=O)NC(=O)[C@@H](N)CC(N)=O)C(C)(C)SC)C(N)=O (some centres not stated) (H-NQW[dA][Pen](Me)GH[ξL]M-NH2)	> 100 µM (inactive)	> 100 µM (inactive)	> 100	> 100 µM (inactive)	> 100 µM (inactive)	> 100 µM (inactive)	> 100 µM (inactive)	> 100 µM (inactive)	> 100 µM (inactive)	> 100 µM (inactive)	> 100 µM (inactive)	–	> 100 µM (inactive)	> 100 µM (inactive)	> 100 µM (inactive)	> 100 µM (inactive)	–	–
